Experimental data taken from patent US20230085307A1, “PYRIDAZINONE COMPOUND AND HERBICIDE” (NISSAN CHEMICAL CORPORATION, priority 2019, published 2023).

Assays:
Italian ryegrass [1] = test: Test Example 5: herbicidal effect by foliage application, plastic box (Table 20, symbol K); assay type: in vivo, Italian ryegrass (Lolium multiflorum); conditions: foliage application, 320 g/ha, evaluated 3 weeks after application
In short: (§1)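 Foliar spray test: emulsion formulation diluted in water to a set application rate, sprayed onto 14-day-old plants raised in diluvial soil at 25° C to 30° C under glass. Both herbicidal effect and crop effect rated visually three weeks later.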

blackgrass [2] = test: Test Example 4: herbicidal effect by soil treatment (Table 19, symbol J); assay type: in vivo, blackgrass (Alopecurus myosuroides); conditions: amount of applied herbicide 320 g/ha
In short: (§2)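 Step 1: sow seeds in sterilized diluvial soil, cover ~1.5 cm. Step 2: spray diluted emulsion onto soil surface at predetermined rate. Step 3: greenhouse, 25–30° C, three weeks. Step 4: grade effect on each plant by earlier criteria.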

velvetleaf = test: Test Example 5: herbicidal effect by foliage application, plastic box (Table 20, symbol M); assay type: in vivo, velvetleaf (Abutilon theophrasti); conditions: foliage application, 320 g/ha, evaluated 3 weeks after application
In short: as §1

Chinese sprangletop = test: Test Example 3: herbicidal effect by foliage application, Wagner pot (Table 18, symbol D); assay type: in vivo, chinese sprangletop (Leptochloa chinensis); conditions: amount of applied herbicide 320 g/ha
In short: (§3)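 Plants were sown in alluvial soil held under 0.1–0.5 cm standing water and grown 14 days in a greenhouse at 25–30 °C. An emulsifiable formulation, water-diluted to the set dose, was then sprayed onto the foliage, and effects were scored three weeks later using previously defined criteria.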

lambsquarters [3] = test: Test Example 5: herbicidal effect by foliage application, plastic box (Table 20, symbol O); assay type: in vivo, lambsquarters (Chenopodium album); conditions: foliage application, 320 g/ha, evaluated 3 weeks after application
In short: as §1

persian speedwell = test: Test Example 5: herbicidal effect by foliage application, plastic box (Table 20, symbol R); assay type: in vivo, Persian speedwell (Veronica persica); conditions: foliage application, 320 g/ha, evaluated 3 weeks after application
In short: as §1

lambsquarters [4] = test: Test Example 4: herbicidal effect by soil treatment (Table 19, symbol O); assay type: in vivo, lambsquarters (Chenopodium album); conditions: amount of applied herbicide 320 g/ha
In short: as §2

chickweed = test: Test Example 5: herbicidal effect by foliage application, plastic box (Table 20, symbol P); assay type: in vivo, common chickweed (Stellaria media); conditions: foliage application, 320 g/ha, evaluated 3 weeks after application
In short: as §1

Japanese bulrush = test: Test Example 2: herbicidal activity, application during weed generation under submerged conditions (Table 17, symbol B); assay type: in vivo, Japanese bulrush (Schoenoplectus juncoides); conditions: AAH 320 g/ha; application during weed generation, submerged conditions
In short: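 Mixed weed seedlings in alluvial soil under a 4 cm water layer, greenhouse-grown at 25–30° C. Compound given as a diluted emulsion into the floodwater at the 1–2 leaf stage; response graded after three weeks.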

blackgrass [5] = test: Test Example 5: herbicidal effect by foliage application, plastic box (Table 20, symbol J); assay type: in vivo, blackgrass (Alopecurus myosuroides); conditions: foliage application, 320 g/ha, evaluated 3 weeks after application
In short: as §1

rice flat sedge = test: Test Example 3: herbicidal effect by foliage application, Wagner pot (Table 18, symbol E); assay type: in vivo, rice flat sedge (Cyperus iria); conditions: amount of applied herbicide 320 g/ha
In short: as §3

barnyard grass [6] = test: Test Example 4: herbicidal effect by soil treatment (Table 19, symbol H); assay type: in vivo, barnyard grass (Echinochloa crus-galli); conditions: amount of applied herbicide 320 g/ha
In short: as §2

barnyard grass [7] = test: Test Example 5: herbicidal effect by foliage application, plastic box (Table 20, symbol H); assay type: in vivo, barnyard grass (Echinochloa crus-galli); conditions: foliage application, 320 g/ha, evaluated 3 weeks after application
In short: as §1

wild oat = test: Test Example 5: herbicidal effect by foliage application, plastic box (Table 20, symbol I); assay type: in vivo, wild oat (Avena fatua); conditions: foliage application, 320 g/ha, evaluated 3 weeks after application
In short: as §1

green foxtail = test: Test Example 4: herbicidal effect by soil treatment (Table 19, symbol G); assay type: in vivo, green foxtail (Setaria viridis); conditions: amount of applied herbicide 320 g/ha
In short: as §2

Italian ryegrass [8] = test: Test Example 4: herbicidal effect by soil treatment (Table 19, symbol K); assay type: in vivo, Italian ryegrass (Lolium multiflorum); conditions: amount of applied herbicide 320 g/ha
In short: as §2

windgrass = test: Test Example 5: herbicidal effect by foliage application, plastic box (Table 20, symbol L); assay type: in vivo, windgrass (Apera spica-venti); conditions: foliage application, 320 g/ha, evaluated 3 weeks after application
In short: as §1

Row | Compound | K (Italian ryegrass) herbicidal effect grade (Italian ryegrass [1]) | J: blackgrass, herbicidal effect grade (blackgrass [2]) | M (velvetleaf) herbicidal effect grade (velvetleaf) | Herbicidal effect on D (Chinese sprangletop), foliage application (Chinese sprangletop) | O (lambsquarters) herbicidal effect grade (lambsquarters [3]) | R (persian speedwell) herbicidal effect grade (persian speedwell) | O: lambsquarters, herbicidal effect grade (lambsquarters [4]) | P (chickweed) herbicidal effect grade (chickweed) | herbicidal effect rating, B: Japanese bulrush (Japanese bulrush) | J (blackgrass) herbicidal effect grade (blackgrass [5]) | Herbicidal effect on E (rice flat sedge), foliage application (rice flat sedge) | H: barnyard grass, herbicidal effect grade (barnyard grass [6]) | H (barnyard grass) herbicidal effect grade (barnyard grass [7]) | I (wild oat) herbicidal effect grade (wild oat) | G: green foxtail, herbicidal effect grade (green foxtail) | K: Italian ryegrass, herbicidal effect grade (Italian ryegrass [8]) | L (windgrass) herbicidal effect grade (windgrass)
1 | COCCOc1ccc(-c2oc3ccc(F)cc3c2-c2c(O)c(C)nn(C)c2=O)cc1 [9-045] | 5 (Herbicidal rate of 90% or more (almost completely withered)) | 5 (Herbicidal rate of 90% or more (almost completely withered)) | 5 (Herbicidal rate of 90% or more (almost completely withered)) | 3 (Herbicidal rate of 40% or more and less than 70%) | 5 (Herbicidal rate of 90% or more (almost completely withered)) | 5 (Herbicidal rate of 90% or more (almost completely withered)) | 5 (Herbicidal rate of 90% or more (almost completely withered)) | 5 (Herbicidal rate of 90% or more (almost completely withered)) | 3 (Herbicidal rate of 40% or more and less than 70%) | 5 (Herbicidal rate of 90% or more (almost completely withered)) | 5 (Herbicidal rate of 90% or more (almost completely withered)) | 5 (Herbicidal rate of 90% or more (almost completely withered)) | 5 (Herbicidal rate of 90% or more (almost completely withered)) | 2 (Herbicidal rate of 20% or more and less than 40%) | 5 (Herbicidal rate of 90% or more (almost completely withered)) | 5 (Herbicidal rate of 90% or more (almost completely withered)) | 3 (Herbicidal rate of 40% or more and less than 70%)
2 | CCCOc1ccc(-c2oc3ccc(C)cc3c2-c2c(O)c(C)nn(C)c2=O)cc1 [9-049] | 5 (Herbicidal rate of 90% or more (almost completely withered)) | 0 (Herbicidal rate of 5% or less (almost no effect)) | 5 (Herbicidal rate of 90% or more (almost completely withered)) | 2 (Herbicidal rate of 20% or more and less than 40%) | 5 (Herbicidal rate of 90% or more (almost completely withered)) | 5 (Herbicidal rate of 90% or more (almost completely withered)) | 4 (Herbicidal rate of 70% or more and less than 90%) | 5 (Herbicidal rate of 90% or more (almost completely withered)) | 4 (Herbicidal rate of 70% or more and less than 90%) | 4 (Herbicidal rate of 70% or more and less than 90%) | 3 (Herbicidal rate of 40% or more and less than 70%) | 4 (Herbicidal rate of 70% or more and less than 90%) | 5 (Herbicidal rate of 90% or more (almost completely withered)) | 0 (Herbicidal rate of 5% or less (almost no effect)) | 4 (Herbicidal rate of 70% or more and less than 90%) | 5 (Herbicidal rate of 90% or more (almost completely withered)) | 0 (Herbicidal rate of 5% or less (almost no effect))
